This note sets out measurements from PubChem BioAssay (NCI).

SMILES strings stand for the structures. Values joined by “and” are separate entries in the source; they are usually repeats but may differ in a detail not shown here. Equal entries are not always repeated.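 Briefly, cells in 96-well plates were exposed to five compound concentrations for 48 h, and endpoints were estimated by linear interpolation. GI50 marks 50% less growth. TGI denotes the concentration required for complete inhibition of growth.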

Test systems include NCI-H460 lung; OVCAR-4 ovarian; MDA-MB-231 breast; CCRF-CEM leukemia; HT29 colon; OVCAR-8 ovarian; SK-OV-3 ovarian; MCF7 breast; SNB-19 CNS; HCC-2998 colon; SF-539 CNS; PC-3 prostate.
Holding throughout (assay): growth of human tumour cells (NCI), 48 h

On to `O=C(N/N=C/C=C/c1ccc([N+](=O)[O-])o1)c1ccc(C(=O)N/N=C/C=C/c2ccc([N+](=O)[O-])o2)cc1`, for which the TGI in the assay on NCI-H460 lung was over 88.5 µM; in the assay with OVCAR-4 ovarian, over 100 µM; in the assay on MDA-MB-231 breast, 97.3 µM; in the assay on CCRF-CEM leukemia it was over 20.3 µM; with HT29 colon, over 100 µM; in the assay on OVCAR-8 ovarian it was 27.7 µM. Moreover, the TGI in the assay on SK-OV-3 ovarian was over 100 µM; with MCF7 breast, over 100 µM; with SNB-19 CNS, over 100 µM; in the assay with HCC-2998 colon it was over 28.5 µM; with SF-539 CNS, 22.3 µM; with PC-3 prostate, over 52.3 µM.
In the case of `CCOC(=O)C(Cc1ccc(N(CCCl)CCCl)cc1)NC(=O)CCCN1C(=O)CN=C(c2ccccc2)c2cc(Cl)ccc21` (stereo unspecified), the TGI in the assay with NCI-H460 lung was over 100 µM; in the assay on OVCAR-4 ovarian it was 98.3 µM; with MDA-MB-231 breast, 78.6 µM; in the assay on CCRF-CEM leukemia, over 100 µM; with HT29 colon, over 100 µM; with OVCAR-8 ovarian, over 100 µM. Further, the TGI was over 100 µM in the assay on SK-OV-3 ovarian; over 100 µM in the assay on MCF7 breast; over 100 µM in the assay with SNB-19 CNS; over 49.7 µM with HCC-2998 colon; 16.3 µM in the assay with SF-539 CNS; over 100 µM in the assay on PC-3 prostate.
With `C#CC1NC(=O)C1N(CC)CC` (stereo unspecified), the TGI in the assay with NCI-H460 lung, in the assay on OVCAR-4 ovarian, with MDA-MB-231 breast, in the assay on CCRF-CEM leukemia, in the assay on HT29 colon and in the assay on OVCAR-8 ovarian was over 100 µM each time. The TGI in the assay on SK-OV-3 ovarian, in the assay on MCF7 breast, in the assay on SNB-19 CNS, with HCC-2998 colon, in the assay with SF-539 CNS and in the assay with PC-3 prostate was over 100 µM throughout.
As for `O=C1C(S(=O)(=O)c2ccccc2)=C(CS(=O)(=O)c2ccccc2)[C@@H](OCc2ccccc2)[C@@H]1OCc1ccccc1`, the TGI with NCI-H460 lung is 50.5 µM; in the assay with OVCAR-4 ovarian, 57.8 µM; in the assay on MDA-MB-231 breast, 60 µM; with CCRF-CEM leukemia, 42.7 µM; with HT29 colon it was 26.3 µM; in the assay with OVCAR-8 ovarian it was 39.8 µM. For the same compound, the TGI in the assay with SK-OV-3 ovarian is over 100 µM; in the assay with MCF7 breast it was over 100 µM; in the assay on SNB-19 CNS, over 100 µM; in the assay on HCC-2998 colon, 36.3 µM; in the assay with SF-539 CNS, 40.6 µM; with PC-3 prostate, 85.8 µM.
Consider `CC1=NN(c2nc(N)nc(/C(C#N)=C\c3cccc([N+](=O)[O-])c3)n2)C(C)(C)C1`, for which the TGI is 19.7 µM in the assay on NCI-H460 lung; over 60.9 µM in the assay on OVCAR-4 ovarian; 25.1 µM with MDA-MB-231 breast; over 66.8 µM with CCRF-CEM leukemia; over 100 µM in the assay on HT29 colon; 54 µM with OVCAR-8 ovarian. In addition, the TGI in the assay on SK-OV-3 ovarian was 57.4 µM; in the assay on MCF7 breast it was over 23 µM; in the assay on SNB-19 CNS it was 88.5 µM; in the assay on HCC-2998 colon, 22.2 µM; in the assay with SF-539 CNS, 36.5 µM; in the assay on PC-3 prostate it was over 53.8 µM.
As to `COc1ccc(/C(=N\Nc2ccccn2)c2ccccn2)cc1`, the TGI in the assay with NCI-H460 lung was 3.08 µM; in the assay with OVCAR-4 ovarian it was 42.9 µM; in the assay with MDA-MB-231 breast, over 74.9 µM; in the assay on CCRF-CEM leukemia, over 100 µM; with HT29 colon, 14 µM; in the assay with OVCAR-8 ovarian, 11.8 µM. Also, the TGI with SK-OV-3 ovarian was 10.1 µM; in the assay on MCF7 breast it was 49.7 µM; in the assay with SNB-19 CNS it was over 63.9 µM; with HCC-2998 colon it was 35.9 µM; in the assay with SF-539 CNS, 6.6 µM; with PC-3 prostate, over 100 µM.
`Cc1cccc2c1c(=O)c1c(O)cc(O)cc1n2C`: the TGI with NCI-H460 lung, in the assay on OVCAR-4 ovarian, with MDA-MB-231 breast, in the assay on CCRF-CEM leukemia, in the assay with HT29 colon and in the assay with OVCAR-8 ovarian was over 100 µM in each case. Besides, the TGI in the assay with SK-OV-3 ovarian, with MCF7 breast, in the assay with SNB-19 CNS, in the assay with HCC-2998 colon, in the assay on SF-539 CNS and in the assay on PC-3 prostate was over 100 µM each time.
Consider `O=C1C=CC2(C=C1)C[C@H](NC(=O)OCc1ccccc1)C(=O)O2`, for which the TGI in the assay with NCI-H460 lung was 59.9 µM; with OVCAR-4 ovarian, 39.6 µM; in the assay with MDA-MB-231 breast, 32.6 µM; with CCRF-CEM leukemia, 10 µM; in the assay on HT29 colon, 31.9 µM; with OVCAR-8 ovarian, 31.4 µM. Also, the TGI in the assay with SK-OV-3 ovarian is over 92.3 µM; in the assay with MCF7 breast, 25.1 µM; with SNB-19 CNS, over 100 µM; with HCC-2998 colon, 40.8 µM; with SF-539 CNS it was 44.5 µM; in the assay with PC-3 prostate it was 29.9 µM.
`Cc1nnc(Sc2nc(C#N)c(C#N)nc2Sc2nnc(C)s2)s1`: the TGI with NCI-H460 lung was over 76.1 µM; in the assay with OVCAR-4 ovarian, over 80.1 µM; with MDA-MB-231 breast it was 37.9 µM; in the assay on CCRF-CEM leukemia, 5.15 µM; in the assay with HT29 colon, over 23.8 µM; with OVCAR-8 ovarian it was 8.34 µM. Further, the TGI is 34.2 µM in the assay on SK-OV-3 ovarian; 25.3 µM with MCF7 breast; 54.6 µM in the assay with SNB-19 CNS; 51.8 µM in the assay with HCC-2998 colon; over 60.1 µM in the assay with SF-539 CNS; 30.7 µM in the assay on PC-3 prostate.
With `COc1cc2c[n+](C)c3c4cc(OC)c(OC)cc4ccc3c2cc1OC`, the GI50 with NCI-H460 lung is > 100 µM and 49.8 µM; with MDA-MB-231 breast it was > 100 µM and 18.6 µM; with OVCAR-8 ovarian, 32.9 µM and 15 µM; with MCF7 breast, 35.6 µM and 8.35 µM; in the assay on SNB-19 CNS, 80 µM and 13.5 µM; with SF-539 CNS, 71.3 µM and 29.9 µM. The TGI in the assay on NCI-H460 lung, in the assay on OVCAR-4 ovarian, in the assay with MDA-MB-231 breast, in the assay on CCRF-CEM leukemia, in the assay with HT29 colon and with OVCAR-8 ovarian was over 100 µM in each case. Also, the TGI in the assay on SK-OV-3 ovarian, with MCF7 breast, in the assay with SNB-19 CNS, in the assay on HCC-2998 colon, in the assay on SF-539 CNS and with PC-3 prostate was over 100 µM in each case.
